We go through eleven molecules from the OPERA property sets (Mansouri et al. 2018).

Usually logP stands for the decadic logarithm of the partition coefficient of the neutral form, usually between octanol and water. A low value points to lower lipophilicity.

The structures appear in SMILES notation.

As for `CCC(C)C#N` (stereo unspecified), the logP amounted to 1.05.

`CCCCCC#N` had a logP of 1.66.

In turn, `C=CCC#N` displayed a logP of 0.4.

Take `CCCCCCCCC#N`: the logP came to 3.12.

The molecule `CCCC#N` had a logP of 0.53.

`N#CCCCCl` came in with a logP of 0.56.

On to `CC(C)CCC#N`, for which the logP turned out to be 1.54.

On to `CCCCCCCC#N`, for which the logP amounted to 2.75.

Take `N#CCCCl`: the logP amounted to 0.18.

In turn, `CC(C)C#N` had a log partition coefficient (logP) of 0.46.

`C=C(C)C#N`: the logP is 0.68.
